Like-named read-outs stand apart in the source and are kept apart here.
Legend:
[1] = biological target: T1, human HPK1 (Homo sapiens, UniProt Q92918); experiment: Assay of in vitro HPK1 enzymatic activity (ADP-Glo); format: biochemical; conditions: 7 nM kinase, 20 uM ATP
Method: Compounds were evaluated for their ability to inhibit human HPK1 by IC50 determination using the ADP-Glo method to measure the kinase activity.
Buffer conditions of the enzyme: 50 mM Hepes (pH 7.5), 10 mM MgCl2, 1 mM EGTA, 0.01% Brij35, 2 mM DTT.
Preparation of the Kinase and substrate mixture: the working concentration of the kinase in the HPK1 reaction solution was 7 nM and the working concentration of ATP was 20 uM.
The compound was diluted with DMSO in a dilution plate, with a maximum starting concentration of 1 uM and 10 concentration gradient points (4-fold dilution).
Each of the above 10 concentration gradient points of the compound was then diluted 50-fold into the kinase reaction buffer and shaken on a shaker for 20 min. The kinase was prepared in an enzyme reaction buffer and 2 μl of the HPK1 kinase was added per well of the reaction plate at a HPK1 kinase concentration of 7 nM.
1 μl of diluted compound in the buffer was added per well, and the plate was sealed with a plate sealing film, centrifuged at 1000 g for 30 seconds, and left at room temperature for 10 minutes. An ATP solution was prepared with an enzyme reaction buffer and 2 μl of the ATP solution was added to the reaction plate (the working concentration of ATP was 20 uM). The plate was sealed with a plate sealing film, centrifuged at 1000 g for 30 seconds, and reacted at room temperature for 60 minutes. 4 μL of ADP-Glu was transferred to a 384 reaction plate, centrifuged at 1000 rpm/min for 1 min, and incubated at 25° C. for 40 min. 8 μL of the Detection solution was transferred to a 384 reaction plate, centrifuged at 1000 rpm/min for 1 min, and incubated at 25° C. for 40 min. The RLU (Relative luminescence unit) signal was read using a BMG microplate reader, and the signal intensity was used to characterize the activity level of the kinase.
The kinase activity data was expressed by comparing the kinase activity of the test compound and the blank group (containing only DMSO), and the IC50 value was obtained by curve fitting using the Prism software (GraphPad7.0).

[2] = biological target: T1, human HPK1; experiment: HPK1 protein degradation assay (WB) in RAMOS cell line; format: cell-based; design: The RAMOS cell line was selected as the degradation cell line; endogenous in cells; host or cells: RAMOS; conditions: RAMOS cells, 16 h, Western blot
Method: Degradation of HPK1 proteins and DC50/Dmax were determined by the WB method in order to evaluate the in vitro degradative ability of the compound.
The RAMOS cell line was selected as the degradation cell line. Incubation Conditions: RMPI 1640 culture medium supplemented with 10% FBS, 37° C., 5% CO2.
• (1) Plating cells: in a 6 cm dish with 4 ml of the culture medium, cells plated at 2×10^6 cells/dish. • (2) Drug addition: the compound (stock solution concentration: 10 mM) was diluted with DMSO in a dilution plate, with a maximum starting concentration of 10 μM and 7 concentration gradient points (3-fold dilution). 4 μl of each diluted solution was taken, added to a dish, and incubated for 16 h. • (3) Cells were harvested, added with a lysis buffer, and centrifuged at 12000 rpm/min for 20 min. The supernatant was collected. After quantification using a BCA quantification kit, 5× loading buffer was added to denature for 10 min. • (4) 10 μg of denatured protein was added to the SDS-PAGE gel. After electrophoresis and membrane transfer, the plate was blocked with 5% BSA for 1 h, incubate with the primary antibody at 4° C. overnight. After washing off the primary antibody, the secondary antibody was added, incubated at room temperature for 1 h, and washed off.
Imaging: the membranes were scanned with a two-color fluorescence imaging system.

[3] = Pharmacokinetics of single administration in mice; format: in vivo, Balb/c mice; design: Vz: unit not given here
Method: Female Balb/c mice (weighing 18-22 g) were fasted overnight prior to the experiment. The test compound was dissolved in the vehicle, DMSO:PEG400:30% captisol:HCl=5:20:70:5 (v/v/v/v), and administered by single oral gavage at a dose of 10 mg/kg or by intravenous injection at a dose of 2 mg/kg. Blood samples were collected from the orbital venous plexus at 15 minutes, 30 minutes, and 1, 2, 4, 6, 8, and 24 h after administration. Approximately 0.08 mL of blood was collected at each time point and placed in a 1.5 mL centrifuge tube containing EDTA-2K anticoagulant. Blood samples were centrifuged (3200 g, 10 min, 4° C.) within 2 h to obtain plasma samples. Plasma samples were frozen at −70° C. to −80° C. in an ultra-low temperature freezer prior to processing. Before sample processing, the plasma samples were taken out of the freezer. After thawing at room temperature, 20 μL of each plasma sample was added into a 96-well plate, and then 120 μL of acetonitrile containing an internal standard was added to precipitate proteins. […] The supernatant was taken and mixed with an equal volume of 0.1% aqueous formic acid solution for LC-MS/MS analysis.

[4] = female, Balb/c, mouse, plasma, iv 2 mg/kg
[5] = female, Balb/c, mouse, plasma, iv 2 mg/kg, read-out: AUC
[6] = female, Balb/c, mouse, plasma, po 10 mg/kg
[7] = female, Balb/c, mouse, plasma, po 10 mg/kg vs iv 2 mg/kg
[8] = female, Balb/c, mouse, plasma, po 10 mg/kg, read-out: AUC
[9] = female, Balb/c, mouse, plasma, po 10 mg/kg, read-out: Cmax

T1 sequence (Q92918 whole entry): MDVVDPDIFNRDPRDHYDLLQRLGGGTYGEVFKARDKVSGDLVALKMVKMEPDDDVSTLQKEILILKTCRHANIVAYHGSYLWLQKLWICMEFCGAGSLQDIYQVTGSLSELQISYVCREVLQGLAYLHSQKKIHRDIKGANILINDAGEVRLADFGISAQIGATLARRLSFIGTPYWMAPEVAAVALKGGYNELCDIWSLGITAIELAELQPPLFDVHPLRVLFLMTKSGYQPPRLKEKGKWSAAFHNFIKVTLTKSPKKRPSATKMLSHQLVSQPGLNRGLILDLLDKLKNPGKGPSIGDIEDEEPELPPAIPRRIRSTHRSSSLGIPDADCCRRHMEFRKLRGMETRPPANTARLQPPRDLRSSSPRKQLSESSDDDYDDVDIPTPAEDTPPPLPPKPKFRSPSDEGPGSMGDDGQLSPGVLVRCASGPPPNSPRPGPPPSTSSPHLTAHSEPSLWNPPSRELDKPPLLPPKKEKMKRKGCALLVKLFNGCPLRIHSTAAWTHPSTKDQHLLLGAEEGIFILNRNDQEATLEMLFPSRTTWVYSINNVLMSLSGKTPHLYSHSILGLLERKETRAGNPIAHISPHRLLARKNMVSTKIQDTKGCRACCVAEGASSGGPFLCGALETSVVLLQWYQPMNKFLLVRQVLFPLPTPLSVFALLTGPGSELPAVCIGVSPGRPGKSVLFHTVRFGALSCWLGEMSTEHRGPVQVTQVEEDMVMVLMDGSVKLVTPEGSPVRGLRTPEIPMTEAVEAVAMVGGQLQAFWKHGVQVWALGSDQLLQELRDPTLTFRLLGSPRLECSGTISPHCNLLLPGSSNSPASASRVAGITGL

Molecule `CCN1CCC(n2cc(-c3c[nH]c4ncc(-c5cnc(N6CCN(C(=O)c7ccc(N8CCC(=O)NC8=O)cc7)CC6)c(C)c5)nc34)cn2)CC1` [Compound C001] has an IC50 [1] of 5.2 nM.
Work on `CCN1CCC(n2cc(-c3c[nH]c4ncc(-c5cnc(N6CCN(CC7CCN(C(=O)c8cccc(N9CCC(=O)NC9=O)c8)CC7)CC6)c(C)c5)nc34)cn2)CC1` [Compound C002] yielded an IC50 [1] of 2.6 nM.
With `CCN1CCC(n2cc(-c3c[nH]c4ncc(-c5cnc(N6CCN(CC7CCN(C(=O)c8ccc(Cl)c(N9CCC(=O)NC9=O)c8)CC7)CC6)c(C)c5)nc34)cn2)CC1` [Compound C004] the IC50 [1] was 1.6 nM.
`CCN1CCC(n2cc(-c3c[nH]c4ncc(-c5cnc(OCC(=O)N6CCC(c7ccc(NC8CCC(=O)NC8=O)cc7)CC6)c(C)c5)nc34)cn2)CC1` (stereo not drawn) [Compound C007] gave an IC50 [1] of 5.2 nM.
In the case of `CCN1CCC(n2cc(-c3c[nH]c4ncc(-c5cnc(OCC(=O)Nc6ccc(NC7CCC(=O)NC7=O)cc6)c(F)c5)nc34)cn2)CC1` (stereo not drawn) [Compound C008], the IC50 [1] is reported as 3.5 nM.
In the case of `CCN1CCC(n2cc(-c3c[nH]c4ncc(-c5cnc(NCCNC(=O)c6cccc(N7CCC(=O)NC7=O)c6)c(C)c5)nc34)cn2)CC1` [Compound C009], the IC50 [1] is reported as 8.8 nM.
Molecule `CCN1CCC(n2cc(-c3c[nH]c4ncc(-c5cnc(N6CCN(CC7CN(C(=O)c8cccc(N9CCC(=O)NC9=O)c8)C7)CC6)c(C)c5)nc34)cn2)CC1` [Compound C011] has an IC50 [1] of 0.7 nM.
Molecule `CCN1CCC(n2cc(-c3c[nH]c4ncc(-c5ccc(N6CCC(CN7CCN(C(=O)c8ccc(Cl)c(N9CCC(=O)NC9=O)c8)CC7)CC6)nc5)nc34)cn2)CC1` [Compound C084] has a DC50 [2] of 1.21 nM and a Dmax [2] of 93%.
`CCN1CCC(n2cc(-c3c[nH]c4ncc(-c5ccc(N6CCC(CC7CCCN(C(=O)c8ccc(Cl)c(N9CCC(=O)NC9=O)c8)CC7)CC6)nc5)nc34)cn2)CC1` (stereo not drawn) [Compound C085] gave a DC50 [2] of 385 nM and a Dmax [2] of 56.4%.
For `CCN1CCC(n2cc(-c3c[nH]c4ncc(-c5ccc(N6CCC(CC7CCN(C(=O)c8ccc(Cl)c(N9CCC(=O)NC9=O)c8)CC7)CC6)nc5)nc34)cn2)CC1` [Compound C092], the DC50 [2] was 21.4 nM.
For `CCN1CCC(n2cc(-c3c[nH]c4ncc(-c5ccc(N6CCC(CC7CCN(C(=O)c8ccc(Cl)c(N9CCC(=O)NC9=O)c8)CC7C)CC6)cc5)nc34)cn2)CC1` (stereo not drawn) [Compound C115], the DC50 [2] was 23.5 nM and the Dmax [2] was 66.4%.
`CCN1CCC(n2cc(-c3c[nH]c4ncc(-c5ccc(N6CCC(F)(CN7CCN(C(=O)c8ccc(Cl)c(N9CCC(=O)NC9=O)c8)CC7)CC6)cc5)nc34)cn2)CC1` [Compound C137] showed a DC50 [2] of 230 nM and a Dmax [2] of 58.4%.
`Cn1cc(-c2c[nH]c3ncc(-c4ccc(N5CCC(CC6CCN(C(=O)c7ccc(Cl)c(N8CCC(=O)NC8=O)c7)CC6)CC5)cc4)nc23)cn1` [Compound C140] gave a DC50 [2] of 198 nM and a Dmax [2] of 50.7%.
`O=C1CCN(c2cc(C(=O)N3CCC(CC4CCN(c5ccc(-c6cnc7[nH]cc(-c8cnn(C(F)F)c8)c7n6)cn5)CC4)CC3)ccc2Cl)C(=O)N1` [Compound C167] gave a DC50 [2] of 23.9 nM and a Dmax [2] of 66.8%.
`O=C1CCN(c2cc(C(=O)N3CCC(CC4CCN(c5ccc(-c6cnc7[nH]cc(-c8cnn(CC9CC9)c8)c7n6)cn5)CC4)CC3)ccc2Cl)C(=O)N1` [Compound C177] gave a DC50 [2] of 632 nM and a Dmax [2] of 51.6%.
Molecule `CC(C)(C#N)n1cc(-c2c[nH]c3ncc(-c4ccc(N5CCC(CC6CCN(C(=O)c7ccc(Cl)c(N8CCC(=O)NC8=O)c7)CC6)CC5)nc4)nc23)cn1` [Compound C181] has a DC50 [2] of 214 nM and a Dmax [2] of 64.4%.
Work on `O=C1CCN(c2cc(C(=O)N3CCC(CC4CCN(c5ccc(-c6cnc7[nH]cc(-c8cnn(CC(F)F)c8)c7n6)cn5)CC4)CC3)ccc2Cl)C(=O)N1` [Compound C195] yielded a DC50 [2] of 18.7 nM, a Dmax [2] of 80.7% and a clearance [3, 4] of 0.785 mL/min/kg. It also gave a half-life [3, 4] of 2.41 h, an AUC [3, 5] of 42500 ng·h/mL and a half-life [3, 6] of 2.8 h. It also gave a bioavailability [3, 7] of 20.7%, an AUC [3, 8] of 44000 ng·h/mL and a Cmax [3, 9] of 14300 ng/mL. The Vz ([3]; iv 2 mg/kg) was 164.
Molecule `O=C1CCN(c2cc(C(=O)N3CCC(CC4CCN(c5ccc(-c6cnc7[nH]cc(-c8cnn(CC(F)(F)F)c8)c7n6)cn5)CC4)CC3)ccc2Cl)C(=O)N1` [Compound C196] has a Dmax [2] of 93.8%.
`O=C1CCN(c2cc(C(=O)N3CCC(CC4CCN(c5ccc(-c6cnc7[nH]cc(-c8cnn(CCF)c8)c7n6)cn5)CC4)CC3)ccc2Cl)C(=O)N1` [Compound C197] showed a DC50 [2] of 5.28 nM, a Dmax [2] of 77.5% and a clearance [3, 4] of 4.5 mL/min/kg. It also gave an AUC ([3]; iv 2 mg/kg) of 7397 ng·h/mL, a Vz ([3]; iv 2 mg/kg) of 917 and a t1/2 ([3]; iv 2 mg/kg) of 2.35 h. It also gave an AUC ([3]; po 10 mg/kg) of 9202 ng·h/mL, a Cmax ([3]; po 10 mg/kg) of 4680 ng/mL and a t1/2 ([3]; po 10 mg/kg) of 3.18 h. For the same molecule, the F % ([3]; po 10 mg/kg vs iv 2 mg/kg) was 25.1%.
In the case of `O=C1CCN(c2cc(C(=O)N3CCC(CC4CCN(c5ccc(-c6cnc7[nH]cc(-c8cn[nH]c8)c7n6)cn5)CC4)CC3)ccc2Cl)C(=O)N1` [Compound C198], the DC50 [2] is reported as 32.9 nM and the Dmax [2] is reported as 91.8%.
For `O=C1CCN(c2cc(C(=O)N3CCC(CC4CCN(c5ccc(-c6cnc7[nH]cc(-c8cnn([C@@H]9CCOC9)c8)c7n6)cn5)CC4)CC3)ccc2Cl)C(=O)N1` [Compound C199], the DC50 [2] was 83 nM and the Dmax [2] was 83.8%.
Work on `COCCn1cc(-c2c[nH]c3ncc(-c4ccc(N5CCC(CC6CCN(C(=O)c7ccc(Cl)c(N8CCC(=O)NC8=O)c7)CC6)CC5)nc4)nc23)cn1` [Compound C201] yielded a DC50 [2] of 30.6 nM, a Dmax [2] of 76.1% and a clearance [3, 4] of 6.58 mL/min/kg. The half-life [3, 4] was 2.16 h, the AUC [3, 5] was 5050 ng·h/mL and the half-life [3, 6] was 2.63 h. The bioavailability [3, 7] was 34.2%, the AUC [3, 8] was 8660 ng·h/mL and the Cmax [3, 9] was 4500 ng/mL. It also gave a Vz ([3]; iv 2 mg/kg) of 1230.
For `Cn1cc(-c2c[nH]c3ncc(-c4cnc(N5CCC(CC6CCN(C(=O)c7ccc(Cl)c(N8CCC(=O)NC8=O)c7)CC6)CC5)nc4)nc23)cn1` [Compound C203], the DC50 [2] was 5.99 nM and the Dmax [2] was 91.7%.
In the case of `Cc1ccc(C(=O)N2CCC(CC3CCN(c4ncc(-c5cnc6[nH]cc(-c7cnn(C)c7)c6n5)cn4)CC3)CC2)cc1N1CCC(=O)NC1=O` [Compound C204], the DC50 [2] is reported as 58 nM and the Dmax [2] is reported as 85.4%.
`CCc1c[nH]c2ncc(-c3ccc(N4CCC(CC5CCN(C(=O)c6ccc(Cl)c(N7CCC(=O)NC7=O)c6)CC5)CC4)nc3)nc12` [Compound C205] showed a DC50 [2] of 89.9 nM and a Dmax [2] of 83%.
In the case of `Cn1cc(-c2c[nH]c3ncc(-c4ccc(N5CCC(CC6CCN(C(=O)c7ccc(Cl)c(C8CCC(=O)NC8=O)c7)CC6)CC5)nc4)nc23)cn1` (stereo not drawn) [Compound C206], the DC50 [2] is reported as 190 nM and the Dmax [2] is reported as 73%.
For `O=C1CCC(c2cc(C(=O)N3CCC(CC4CCN(c5ccc(-c6cnc7[nH]cc(-c8cnn(CCO)c8)c7n6)cn5)CC4)CC3)ccc2Cl)C(=O)N1` (stereo not drawn) [Compound C209], the DC50 [2] was 29 nM and the Dmax [2] was 84%.
